This is an account of results in ChEMBL document CHEMBL1201862, “PubChem BioAssay data set” (2004).

Each structure is given as a SMILES string. The source made the active and inactive calls.

A short description of test [1]: Late stage counterscreen results from the probe development effort to identify activators of signal transducer and activator of transcription 1 (STAT1): luminescence-based cell-based dose response assay to identify cytotoxic compounds. Type of test: functional.
The target in test [2] is Induced myeloid leukemia cell differentiation protein Mcl-1 (Homo sapiens, UniProt Q07820). It counts as functional.
Sequence of Induced myeloid leukemia cell differentiation protein Mcl-1 (Q07820 whole entry): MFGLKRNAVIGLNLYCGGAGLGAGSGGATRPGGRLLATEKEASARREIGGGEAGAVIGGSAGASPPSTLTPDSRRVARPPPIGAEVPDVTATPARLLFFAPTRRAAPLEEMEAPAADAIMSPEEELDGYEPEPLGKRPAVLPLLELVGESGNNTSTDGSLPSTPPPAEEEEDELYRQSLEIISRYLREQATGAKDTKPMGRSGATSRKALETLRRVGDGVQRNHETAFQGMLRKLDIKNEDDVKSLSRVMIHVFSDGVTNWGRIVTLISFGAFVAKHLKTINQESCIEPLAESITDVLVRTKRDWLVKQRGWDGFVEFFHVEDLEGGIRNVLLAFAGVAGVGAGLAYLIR
Test [3] has as its target Eukaryotic translation initiation factor 4E (Mus musculus, UniProt P63073). As to the kind of experiment: eIF4E–eIF4G protein interaction inhibitors, dose response, biochemical, TR-FRET (AID 855).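 Further: potency for disrupting eIF4E binding to eIF4GI seen as loss of FRET.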 It counts as functional.
Test [4] addresses T1, Zinc finger protein mex-5 (Caenorhabditis elegans, UniProt Q9XUB2).
T1 sequence (Q9XUB2 whole entry): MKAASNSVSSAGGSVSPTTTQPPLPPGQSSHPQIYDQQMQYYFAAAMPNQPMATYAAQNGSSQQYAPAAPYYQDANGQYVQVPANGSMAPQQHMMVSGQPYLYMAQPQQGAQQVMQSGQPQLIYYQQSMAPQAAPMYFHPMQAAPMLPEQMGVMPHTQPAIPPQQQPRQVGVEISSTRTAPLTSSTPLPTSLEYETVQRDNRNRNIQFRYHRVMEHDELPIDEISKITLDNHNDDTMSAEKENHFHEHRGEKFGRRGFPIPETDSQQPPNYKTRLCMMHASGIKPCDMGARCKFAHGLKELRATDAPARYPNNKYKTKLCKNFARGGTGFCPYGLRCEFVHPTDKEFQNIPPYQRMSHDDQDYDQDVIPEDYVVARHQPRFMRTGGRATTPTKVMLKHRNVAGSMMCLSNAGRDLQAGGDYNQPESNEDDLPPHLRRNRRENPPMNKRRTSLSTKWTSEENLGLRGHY
As to the kind of experiment: MEX-5/TCR-2 RNA interaction inhibitors, dose response, biochemical, C. elegans, fluorescence polarization (AID 1960).

In another test the target is Ephrin type-A receptor 4 (Mus musculus, UniProt Q03137). As to the kind of experiment: inhibitors of EphA4 binding to KYL peptide, primary screen, biochemical, colorimetric, mouse EphA4 (AID 689). Type of test: functional.
The next test has as its target T2, Aminopeptidase N (Plasmodium falciparum FcB1/Columbia, UniProt O96935).
T2 sequence (O96935 whole entry): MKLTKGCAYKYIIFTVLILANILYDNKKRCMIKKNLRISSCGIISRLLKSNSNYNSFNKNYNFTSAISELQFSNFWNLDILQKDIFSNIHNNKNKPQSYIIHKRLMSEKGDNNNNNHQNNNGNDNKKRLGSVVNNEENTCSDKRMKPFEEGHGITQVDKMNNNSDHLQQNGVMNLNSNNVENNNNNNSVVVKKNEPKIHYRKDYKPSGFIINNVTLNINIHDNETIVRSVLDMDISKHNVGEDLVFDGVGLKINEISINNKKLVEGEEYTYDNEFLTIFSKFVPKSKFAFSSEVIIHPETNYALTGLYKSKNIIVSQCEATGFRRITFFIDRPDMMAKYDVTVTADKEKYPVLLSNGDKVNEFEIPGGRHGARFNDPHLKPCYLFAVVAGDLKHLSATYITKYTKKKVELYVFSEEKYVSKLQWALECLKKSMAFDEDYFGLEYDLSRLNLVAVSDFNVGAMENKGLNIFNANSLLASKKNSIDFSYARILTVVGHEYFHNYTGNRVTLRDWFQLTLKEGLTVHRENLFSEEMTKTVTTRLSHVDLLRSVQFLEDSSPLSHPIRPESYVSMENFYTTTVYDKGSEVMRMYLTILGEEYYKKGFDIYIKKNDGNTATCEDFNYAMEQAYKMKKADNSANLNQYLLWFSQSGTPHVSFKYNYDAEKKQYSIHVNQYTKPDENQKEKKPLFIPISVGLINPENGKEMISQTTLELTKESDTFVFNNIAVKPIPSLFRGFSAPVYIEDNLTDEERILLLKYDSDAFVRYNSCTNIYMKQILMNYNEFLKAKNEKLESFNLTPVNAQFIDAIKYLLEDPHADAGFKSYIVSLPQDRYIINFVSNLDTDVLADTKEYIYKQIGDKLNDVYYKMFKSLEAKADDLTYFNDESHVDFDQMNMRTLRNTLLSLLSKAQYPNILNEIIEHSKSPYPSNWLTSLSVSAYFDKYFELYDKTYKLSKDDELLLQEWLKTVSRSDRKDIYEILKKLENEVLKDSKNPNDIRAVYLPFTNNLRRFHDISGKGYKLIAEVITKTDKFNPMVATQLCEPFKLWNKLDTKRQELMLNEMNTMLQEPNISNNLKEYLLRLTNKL
As to the kind of experiment: P. falciparum M1AAP inhibitors, biochemical, fluorogenic H-Leu-NHMec substrate, 1536-well (AID 1445). More on the design: species or system Plasmodium falciparum 3D7, 3D7.

Test [5] addresses T3, RNA-binding protein pos-1 (Caenorhabditis elegans, UniProt G5EF15).
T3 sequence (G5EF15 whole entry): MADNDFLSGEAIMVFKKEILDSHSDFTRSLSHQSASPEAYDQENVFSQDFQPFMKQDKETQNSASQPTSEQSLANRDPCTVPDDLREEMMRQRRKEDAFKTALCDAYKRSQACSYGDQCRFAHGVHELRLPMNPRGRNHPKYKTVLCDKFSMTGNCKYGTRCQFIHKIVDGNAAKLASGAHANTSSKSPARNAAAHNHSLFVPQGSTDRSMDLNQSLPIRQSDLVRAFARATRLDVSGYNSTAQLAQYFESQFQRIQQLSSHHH
The test can be described thus: inhibitors of POS-1/mex-3 RNA binding, dose response, biochemical, fluorescence polarization (AID 1964).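 Further: purified POS-1 fused to maltose binding protein made in E. coli; potency of compounds blocking POS-1 binding to fluorescent RNA.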

Test [6] in a line: growth suppression of PTEN-null colon cells, dose response, cell-based, HCT116 PTEN knockout (AID 1047).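 Further: HCT116 colon tumor cells with PTEN knocked out; cells exposed to compound for 60 hours before readout; potency for loss of cell viability measured by luminescence.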 Type of test: functional.
A short description of test [7]: THP-1 cell cytotoxicity, dose response, cytotoxicity control for non-replicating M. tuberculosis project (AID 489025). It counts as functional.
Test [8] is described as follows: Vero E6 cell cytotoxicity, dose response, cytotoxicity control for non-replicating M. tuberculosis project, secondary assay (AID 492998). It counts as functional, VeroE6. The note with it: Vero C1008.
A short description of test [9]: control 3'UTR Renilla luciferase suppression, dose response, counter-screen for Shn3 inhibitor project, cell-based, Clone20-Shn3RL, cherry-picked (AID 624133). Type of test: functional.
Test [10] in a line: cytotoxicity in KRAS-transformed pancreatic duct cells, primary screen, cell-based, fluorescence, HTS (AID 431). It counts as functional. The conditions noted are these: Homo sapiens.
Test [11] in a line: inhibitors of intracellular T. cruzi replication, confirmation, NIH3T3 host cells, beta-gal luminescence (AID 2044).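 Further: intracellular parasites grown in NIH/3T3 mouse fibroblasts as host cells; luminescent beta-galactosidase reporter signal from transgenic T. cruzi replicating inside host cells; inhibitors lower the luminescence signal.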 It counts as functional, cell-based.
Test [12] in a line: cytotoxicity in HPDE-C7 cells, cell-based, fluorescence, HTS (AID 430). Type of test: functional. The note with it: Homo sapiens.
Test [13] is described as follows: cytotoxicity in HEK-293T cells, dose response, cytotoxicity control for TCR NF-kB inhibitor project, luminescence, T-cell screen hits (AID 489026).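 Further: cells exposed to compound about 14 hours before the viability readout.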 Type of test: functional, cell-based.
Test [14] in a line: cytotoxicity toward NIH3T3 fibroblasts, dose response, counter-screen, cell-based, ATP luminescence, mouse fibroblasts (AID 2010).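 Further: cells exposed to compound for about 90 hours before reading.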 Type of test: functional.
A short description of test [15]: HepG2 cell cytotoxicity, dose response, cytotoxicity control for Shn3 inhibitor project, CellTiter-Glo, cherry-picked (AID 624134). Type of test: functional, cell-based.
Test [16] in a line: growth suppression of beta-catenin-knockout colon cells, dose response, cell-based, HCT116, human colon tumor (AID 1045).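 Further: HCT116 colon tumor cells with beta catenin knocked out; cells exposed to compound for 60 hours.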 Type of test: functional.
A short description of test [17]: Shn3 3'UTR reporter inhibitors, dose response, cell-based, Clone20 osteoblasts, firefly luciferase, cherry-picked (AID 624132).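 Further: firefly luciferase luminescence from reporter carrying the Shn3 3'UTR in osteoblasts.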 It counts as functional.
In test [18] the target is Sphingosine 1-phosphate receptor 2 (Homo sapiens, UniProt O95136). As to the kind of experiment: Dose Response Cell Based Assay for Antagonists of the S1P2 Receptor. [Related pubchem assays: 856, 736 ]. Type of test: functional.
Sequence of Sphingosine 1-phosphate receptor 2 (O95136 whole entry): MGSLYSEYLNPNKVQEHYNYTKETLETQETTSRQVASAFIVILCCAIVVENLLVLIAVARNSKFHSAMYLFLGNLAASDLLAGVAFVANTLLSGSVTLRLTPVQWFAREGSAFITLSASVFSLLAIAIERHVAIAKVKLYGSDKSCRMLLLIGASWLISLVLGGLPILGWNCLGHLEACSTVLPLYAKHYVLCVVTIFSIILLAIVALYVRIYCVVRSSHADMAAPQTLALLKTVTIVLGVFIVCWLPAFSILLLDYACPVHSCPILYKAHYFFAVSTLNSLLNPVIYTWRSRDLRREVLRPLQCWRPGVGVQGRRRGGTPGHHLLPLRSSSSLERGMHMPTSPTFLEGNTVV
The nature of a further test: cells. It counts as functional.
The target in another test is Phospholipase A2 (Homo sapiens, UniProt P04054). It counts as functional.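 Further: confirmatory dose-response counterscreen on phospholipase A2, testing hits that came from an ultra-high-throughput screen for ATG4B inhibitors.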
Sequence of Phospholipase A2 (P04054 whole entry): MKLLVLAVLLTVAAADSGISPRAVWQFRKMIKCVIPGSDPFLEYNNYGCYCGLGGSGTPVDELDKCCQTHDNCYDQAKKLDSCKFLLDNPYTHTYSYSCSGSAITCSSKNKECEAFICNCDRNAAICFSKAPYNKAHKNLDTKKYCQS
Another test concerns the target Cysteine protease ATG4B (Homo sapiens, UniProt Q9Y4P1). It counts as functional.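 Further: Fluorescence-based dose-response confirmation assay measuring inhibition of ATG4B activity.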
In test [19] the test system is Vero. The test can be described thus: cells. It counts as functional. The note with it: Chlorocebus sabaeus.
Test [20] concerns the target Voltage-gated inwardly rectifying potassium channel KCNH2 (Homo sapiens, UniProt Q12809). The test can be described thus: hERG protection from proarrhythmic block, potency, dose response, cell-based, thallium flux (AID 2121). Type of test: ADME.
Test [21] relates to Vero. As to the kind of experiment: cells. Type of test: functional, cell-based. The note with it: Chlorocebus sabaeus.
Test [22] has as its target Photoreceptor-specific nuclear receptor (Homo sapiens, UniProt Q9Y5X4). As to the kind of experiment: NR2E3 inverse agonists, dose response, biochemical, TR-FRET (AID 463256). It counts as functional.
In test [23] the target is Peroxisome proliferator-activated receptor gamma/Nuclear receptor corepressor 2 (Homo sapiens, UniProt P37231+Q9Y618). The test can be described thus: Counterscreen for NR2E3 inverse agonists: TR-FRET-based biochemical high throughput dose response assay to identify inverse agonists of the interaction between peroxisome proliferator-activated receptor gamma (PPARg) and nuclear receptor co-repressor 2 (NCOR2). Type of test: functional.
Sequence of Peroxisome proliferator-activated receptor gamma/Nuclear receptor corepressor 2 (P37231 whole entry): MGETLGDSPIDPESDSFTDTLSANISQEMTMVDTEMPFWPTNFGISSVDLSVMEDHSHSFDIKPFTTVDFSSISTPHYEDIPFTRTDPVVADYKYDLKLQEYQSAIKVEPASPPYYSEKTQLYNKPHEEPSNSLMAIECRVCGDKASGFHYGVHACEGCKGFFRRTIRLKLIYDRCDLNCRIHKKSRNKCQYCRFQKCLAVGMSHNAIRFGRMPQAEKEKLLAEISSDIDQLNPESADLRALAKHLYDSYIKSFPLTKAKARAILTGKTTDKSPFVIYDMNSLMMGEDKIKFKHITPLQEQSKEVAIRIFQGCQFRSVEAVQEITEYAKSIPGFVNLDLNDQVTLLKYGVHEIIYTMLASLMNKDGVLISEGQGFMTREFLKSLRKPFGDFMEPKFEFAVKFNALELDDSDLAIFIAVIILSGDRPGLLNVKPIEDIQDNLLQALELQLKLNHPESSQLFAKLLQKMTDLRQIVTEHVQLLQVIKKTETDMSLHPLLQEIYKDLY
Sequence of Peroxisome proliferator-activated receptor gamma/Nuclear receptor corepressor 2 (Q9Y618 whole entry): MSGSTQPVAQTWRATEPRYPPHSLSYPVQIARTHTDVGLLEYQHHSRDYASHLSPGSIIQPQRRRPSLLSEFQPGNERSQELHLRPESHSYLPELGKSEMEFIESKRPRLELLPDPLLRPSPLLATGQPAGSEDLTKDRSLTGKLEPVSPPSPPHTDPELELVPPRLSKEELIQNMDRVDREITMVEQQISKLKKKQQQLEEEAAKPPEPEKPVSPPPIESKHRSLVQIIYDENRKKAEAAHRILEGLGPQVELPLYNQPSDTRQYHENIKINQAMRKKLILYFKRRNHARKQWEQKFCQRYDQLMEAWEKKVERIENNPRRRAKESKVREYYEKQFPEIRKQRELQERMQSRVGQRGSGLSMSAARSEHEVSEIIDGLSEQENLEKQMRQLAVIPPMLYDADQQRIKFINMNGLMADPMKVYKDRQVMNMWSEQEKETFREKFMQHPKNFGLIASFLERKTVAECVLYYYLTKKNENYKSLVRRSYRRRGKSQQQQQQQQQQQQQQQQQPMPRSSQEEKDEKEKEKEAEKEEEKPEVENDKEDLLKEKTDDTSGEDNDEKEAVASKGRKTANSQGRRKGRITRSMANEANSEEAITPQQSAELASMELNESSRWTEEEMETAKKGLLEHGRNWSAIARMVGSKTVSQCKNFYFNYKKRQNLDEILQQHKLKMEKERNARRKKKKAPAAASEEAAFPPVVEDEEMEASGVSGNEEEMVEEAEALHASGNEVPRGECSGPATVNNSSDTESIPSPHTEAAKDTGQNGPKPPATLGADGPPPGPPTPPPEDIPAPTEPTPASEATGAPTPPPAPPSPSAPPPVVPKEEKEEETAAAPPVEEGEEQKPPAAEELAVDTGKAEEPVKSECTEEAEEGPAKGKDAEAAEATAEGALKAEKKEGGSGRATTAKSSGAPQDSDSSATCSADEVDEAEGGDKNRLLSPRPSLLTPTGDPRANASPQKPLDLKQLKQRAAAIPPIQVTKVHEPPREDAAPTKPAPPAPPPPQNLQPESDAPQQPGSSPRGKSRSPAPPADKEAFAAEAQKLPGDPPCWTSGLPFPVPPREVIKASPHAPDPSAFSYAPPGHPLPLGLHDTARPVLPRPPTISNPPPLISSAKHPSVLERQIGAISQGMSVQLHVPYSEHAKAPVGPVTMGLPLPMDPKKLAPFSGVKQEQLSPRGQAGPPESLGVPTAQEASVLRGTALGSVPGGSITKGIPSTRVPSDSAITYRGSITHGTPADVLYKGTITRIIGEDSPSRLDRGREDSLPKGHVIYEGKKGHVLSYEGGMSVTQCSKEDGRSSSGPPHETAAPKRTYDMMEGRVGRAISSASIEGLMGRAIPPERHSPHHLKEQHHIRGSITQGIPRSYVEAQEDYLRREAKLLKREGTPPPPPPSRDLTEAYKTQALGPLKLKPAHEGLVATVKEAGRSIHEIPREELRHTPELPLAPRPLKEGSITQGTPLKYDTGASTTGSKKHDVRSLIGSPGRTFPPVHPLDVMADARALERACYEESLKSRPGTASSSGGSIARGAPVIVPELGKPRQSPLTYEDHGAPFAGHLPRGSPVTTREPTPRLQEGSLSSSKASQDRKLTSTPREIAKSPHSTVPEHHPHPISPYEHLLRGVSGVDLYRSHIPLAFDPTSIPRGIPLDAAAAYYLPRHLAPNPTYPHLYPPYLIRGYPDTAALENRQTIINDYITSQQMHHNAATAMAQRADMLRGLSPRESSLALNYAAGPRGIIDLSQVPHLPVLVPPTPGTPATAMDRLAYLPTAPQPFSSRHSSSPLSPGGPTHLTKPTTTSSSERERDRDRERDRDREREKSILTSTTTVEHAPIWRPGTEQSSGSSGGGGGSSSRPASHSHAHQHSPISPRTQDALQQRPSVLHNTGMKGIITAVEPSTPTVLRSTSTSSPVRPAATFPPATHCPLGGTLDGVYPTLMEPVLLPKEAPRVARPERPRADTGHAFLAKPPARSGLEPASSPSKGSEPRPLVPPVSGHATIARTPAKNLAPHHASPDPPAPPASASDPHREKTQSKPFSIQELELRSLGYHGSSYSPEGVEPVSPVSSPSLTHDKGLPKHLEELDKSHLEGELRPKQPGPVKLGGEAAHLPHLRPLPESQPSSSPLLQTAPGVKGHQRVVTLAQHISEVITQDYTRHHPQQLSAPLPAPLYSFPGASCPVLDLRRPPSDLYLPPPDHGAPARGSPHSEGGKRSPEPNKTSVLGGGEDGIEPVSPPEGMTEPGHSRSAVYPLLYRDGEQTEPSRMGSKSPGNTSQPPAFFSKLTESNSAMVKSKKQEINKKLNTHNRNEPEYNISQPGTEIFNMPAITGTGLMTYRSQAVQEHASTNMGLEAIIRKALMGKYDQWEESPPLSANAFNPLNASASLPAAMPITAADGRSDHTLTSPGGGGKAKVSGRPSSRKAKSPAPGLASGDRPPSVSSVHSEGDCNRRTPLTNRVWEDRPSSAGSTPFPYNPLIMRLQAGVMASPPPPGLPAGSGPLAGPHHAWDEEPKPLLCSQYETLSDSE

Sequence of Eukaryotic translation initiation factor 4E (P63073 whole entry): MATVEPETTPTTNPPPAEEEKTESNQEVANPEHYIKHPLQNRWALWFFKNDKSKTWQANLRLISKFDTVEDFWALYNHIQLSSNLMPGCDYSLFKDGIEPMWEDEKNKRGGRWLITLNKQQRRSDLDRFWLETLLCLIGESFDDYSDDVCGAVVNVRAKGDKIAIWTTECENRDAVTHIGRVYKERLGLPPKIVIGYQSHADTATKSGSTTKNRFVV
Sequence of Cysteine protease ATG4B (Q9Y4P1 whole entry): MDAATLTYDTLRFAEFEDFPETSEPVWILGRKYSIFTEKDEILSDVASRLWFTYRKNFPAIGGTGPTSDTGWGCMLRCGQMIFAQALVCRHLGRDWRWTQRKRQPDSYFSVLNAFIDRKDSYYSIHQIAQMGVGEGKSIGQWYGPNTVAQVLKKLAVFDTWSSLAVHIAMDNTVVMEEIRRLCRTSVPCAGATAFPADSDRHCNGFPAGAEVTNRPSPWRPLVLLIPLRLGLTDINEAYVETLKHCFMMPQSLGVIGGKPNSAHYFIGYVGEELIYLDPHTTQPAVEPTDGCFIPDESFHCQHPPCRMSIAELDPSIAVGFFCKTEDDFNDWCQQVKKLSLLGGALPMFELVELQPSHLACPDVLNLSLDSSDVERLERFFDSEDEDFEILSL
Sequence of Photoreceptor-specific nuclear receptor (Q9Y5X4 whole entry): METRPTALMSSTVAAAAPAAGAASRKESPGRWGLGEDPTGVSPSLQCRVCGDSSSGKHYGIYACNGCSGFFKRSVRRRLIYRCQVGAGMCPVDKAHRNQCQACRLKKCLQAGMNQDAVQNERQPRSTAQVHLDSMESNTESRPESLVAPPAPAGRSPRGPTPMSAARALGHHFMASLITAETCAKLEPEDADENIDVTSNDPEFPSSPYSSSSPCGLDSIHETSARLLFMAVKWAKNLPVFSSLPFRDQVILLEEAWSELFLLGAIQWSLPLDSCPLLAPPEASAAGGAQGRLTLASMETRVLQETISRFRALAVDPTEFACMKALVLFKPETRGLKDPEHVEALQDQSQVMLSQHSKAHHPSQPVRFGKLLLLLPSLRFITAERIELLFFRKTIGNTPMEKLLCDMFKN

`CCOC(=O)/C(C#N)=C/c1cc(C)n(-c2ccccc2)c1C`: in test [1], the IC50 is listed as > 55.7 µM (not active).

Regarding `CCOC(=O)c1cc(-c2ccc(/C=C3/C(=O)NC(=O)C(C#N)=C3C)o2)ccc1Cl`, the IC50 was 0.752 µM (active) in [2], 23.4 µM (active) in test [3], 2.53 µM (active) at Ephrin type-A receptor 4 and 80.1 µM (active) at Aminopeptidase N. Further, the values for the EC50 in [4] and in [5] were 17.4 µM (active) and 19.9 µM (active), respectively.

As to `O=S1(=O)C=C(Sc2nc3cc(Cl)ccc3o2)c2ccccc21`, the EC50 in test [6] was 4.03 µM (active); in [10], 9.45 µM (active); in [11], 0.818 µM (active); in test [12], 4.03 µM (active); in [14], 1.58 µM (active); in test [16], 3.65 µM (active). Moreover, the CC50 in [7] is 8.54 µM (active); in test [8] it was 5.94 µM (active). Moreover, the AC50 in [9] is 4.15 µM (active); in test [15], 18.4 µM (active); in test [17], < 0.26 µM (active). Besides, the figures for the IC50 (in [13]; in [18]; in the test “cells”) were 54.3 µM (inactive), 3.47 µM (active) and 1.57 µM (active), respectively.

For the compound `Cc1ccc(C(=O)CC(=O)c2cc(Cl)ccc2O)cc1`, the IC50 at Phospholipase A2 is 8 µM (active); on Cysteine protease ATG4B, 11.1 µM (active); in the test on Vero [21] it was 23.8 µM (active). In addition, the CC50 in the test with Vero [19] is 22.3 µM (active). The EC50 in [20] was 3.02 µM (active).

For the compound `Cn1c(SCC(=O)c2ccc3c(c2)Cc2ccccc2-3)nnc1-c1ccccc1`, the figures for the IC50 in [22] and in test [23] were 3.82 µM (active) and 4.12 µM (active), respectively.
